Each block holds one compound with its values, some of them ahead of it.
Assays:
[1] = biological target: T1, Transcriptional regulator MvfR (Pseudomonas aeruginosa PA14, UniProt A0A072ZLE6); assay: Antagonist activity at PqsR in wild-type Pseudomonas aeruginosa PAO1 assessed as reduction in AQ level at 0.2 uM by LCMS/MS analysis
T1 sequence (A0A072ZLE6 whole entry): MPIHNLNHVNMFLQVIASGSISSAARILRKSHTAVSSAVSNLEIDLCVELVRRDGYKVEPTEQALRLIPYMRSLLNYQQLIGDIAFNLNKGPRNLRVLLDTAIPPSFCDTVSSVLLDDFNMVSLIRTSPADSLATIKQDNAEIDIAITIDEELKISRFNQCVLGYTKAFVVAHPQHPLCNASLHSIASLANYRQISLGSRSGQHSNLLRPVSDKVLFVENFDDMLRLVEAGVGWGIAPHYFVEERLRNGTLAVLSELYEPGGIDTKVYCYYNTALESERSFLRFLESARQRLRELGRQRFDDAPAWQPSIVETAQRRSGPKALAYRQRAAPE

[2] = biological target: T1, Transcriptional regulator MvfR; assay: Antagonist activity at PqsR in wild-type Pseudomonas aeruginosa PA14 assessed as reduction in AQ level at 0.2 uM by LCMS/MS analysis
[3] = test system: Staphylococcus aureus; assay: Antibacterial activity against […] Staphylococcus aureus ATCC 29213 assessed as reduction in bacterial growth incubated for 18 hrs by mueller hinton broth dilution method; type: functional, organism-based; conditions: ATCC 29213, 18 h
[4] = test system: Staphylococcus aureus; assay: Antibiofilm activity against Methicillin-sensitive Staphylococcus aureus ATCC 29213 assessed as reduction in biofilm formation at 200 uM incubated for 24 hrs by crystal violet staining based analysis relative to control; type: functional; parameters: scale not given: the % may be the effect or the level left
[5] = test system: Pseudomonas aeruginosa; assay: Antibiofilm activity against Pseudomonas aeruginosa assessed as reduction in biofilm formation incubated for 24 hrs by microscopic analysis; type: functional, organism-based
[6] = test system: Staphylococcus aureus; assay: Antimicrobial activity against methicillin-sensitive Staphylococcus aureus ATCC 35556 assessed as reduction in microbial growth incubated for 24 hrs by broth microdilution method; type: functional, organism-based; conditions: ATCC 35556, 24 h
[7] = test system: Staphylococcus aureus; assay: Antimicrobial activity against methicillin-resistant Staphylococcus aureus ATCC 43866 assessed as reduction in microbial growth incubated for 24 hrs by broth microdilution method; type: functional, organism-based; conditions: ATCC 43866, 24 h
[8] = test system: Pseudomonas aeruginosa; assay: Antimicrobial activity against Pseudomonas aeruginosa ATCC 9027 assessed as reduction in microbial growth by serial dilution method; type: functional, organism-based
[9] = test system: Staphylococcus aureus; assay: Antibacterial activity against Staphylococcus aureus ATCC 25923 assessed as bacterial growth inhibition measured after 18 hrs by CLSI protocol based two-fold serial microdilution method; type: functional, organism-based; conditions: ATCC 25923, 18 h
[10] = test system: Acinetobacter baumannii; assay: Antibacterial activity against Acinetobacter baumannii ATCC 19606 assessed as growth inhibition incubated for 18 hrs by resazurin dye based assay; type: functional, organism-based; conditions: ATCC 19606, 18 h
[11] = test system: Staphylococcus aureus; assay: Antibacterial activity against Staphylococcus aureus assessed as bacterial growth inhibition; type: functional, organism-based
[12] = test system: Enterococcus faecium; assay: Antibacterial activity against Vancomycin-resistant Enterococcus faecium ATCC 51559 assessed as reduction in bacterial growth incubated for 18 hrs by spectrophotometry based analysis; type: functional, organism-based; conditions: ATCC 51559, 18 h
[13] = test system: Staphylococcus aureus; assay: Antibiofilm activity against methicillin-resistant Staphylococcus aureus assessed as inhibition of biofilm formation incubated for 8 hrs by crystal violet staining based analysis; type: functional, organism-based
[14] = test system: Klebsiella pneumoniae; assay: Antibiofilm activity against Klebsiella pneumoniae ATCC 13882 assessed as inhibition of biofilm formation incubated for 24 hrs by crystal violet staining based broth microdilution method; type: functional, organism-based; conditions: ATCC 13882, 24 h
[15] = test system: Klebsiella pneumoniae; assay: Antibacterial activity against Klebsiella pneumoniae ATCC 13882 assessed as fold change in colistin MIC incubated for 16 to 18 hrs by broth microdilution method; type: functional; conditions: time 16-18 hrs
[16] = test system: Staphylococcus aureus; assay: Antibiofilm activity against Staphylococcus aureus BAA 1708 at 3.1 ug/ml measured after 24 hrs by crystal violet staining based analysis relative to control; type: functional; conditions: dose 3.1 µg/ml
[17] = test system: Staphylococcus aureus; assay: Antibiofilm activity against Staphylococcus aureus ATCC 25923 at 3.1 ug/ml measured after 24 hrs by crystal violet staining based analysis relative to control; type: functional; conditions: dose 3.1 µg/ml
[18] = test system: Staphylococcus aureus; assay: Antibiofilm activity against Staphylococcus aureus ATCC 29213 at 3.1 ug/ml measured after 24 hrs by crystal violet staining based analysis relative to control; type: functional; conditions: dose 3.1 µg/ml
[19] = test system: Pseudomonas aeruginosa; assay: Antibiofilm activity against Pseudomonas aeruginosa PAO1 assessed as inhibition of biofilm formation incubated for 8 hrs by crystal violet based; type: functional, organism-based; conditions: PAO1, 8 h
[20] = test system: Staphylococcus epidermidis; assay: Antibacterial activity against Staphylococcus epidermidis RP62A assessed as reduction in bacterial growth incubated for 18 to 20 hrs by broth microdilution assay; type: functional; conditions: time 18-20 hrs
[21] = test system: Staphylococcus aureus; assay: Antibacterial activity against Staphylococcus aureus ATCC 6538 assessed as reduction in bacterial growth incubated for 18 to 24 hrs by broth microdilution method; type: functional; conditions: time 18-24 hrs
[22] = test system: Staphylococcus aureus; assay: Antibacterial activity against Staphylococcus aureus ATCC 29213 assessed as reduction in bacterial growth incubated for 18 to 24 hrs by broth microdilution method; type: functional; conditions: time 18-24 hrs
[23] = test system: Staphylococcus aureus; assay: Antibacterial activity against Staphylococcus aureus ATCC 25923 assessed as reduction in bacterial growth incubated for 18 to 24 hrs by broth microdilution method; type: functional; conditions: time 18-24 hrs
[24] = test system: Staphylococcus aureus; assay: Antibiofilm activity against Staphylococcus aureus ATCC 25923 after 24 hrs by crystal violet staining based assay; type: functional
[25] = Inhibition of Staphylococcus aureus sortase A by FRET assay
[26] = test system: Pseudomonas aeruginosa; assay: Antimicrobial activity against Pseudomonas aeruginosa PAO1 assessed as inhibition of microbial growth by microdilution broth method; type: functional
[27] = test system: Pseudomonas aeruginosa; assay: Antibiofilm activity against Pseudomonas aeruginosa PAO1 assessed as inhibition of biofilm formation at 10 microg/ml relative to control; type: functional; parameters: scale not given: the % may be the effect or the level left; conditions: dose 10 µg/ml

SMILES: O=CN1N=C(c2ccccc2)CC1c1cccc(Nc2ccnc3cc(Cl)ccc23)c1 (configuration not stated)
- IC50 [1]: 12.4 µM
- IC50 [2]: 2.3 µM

SMILES: Nc1ncc(C#CC2CCCC2)cn1
- IC50 [3]: 72 µM
- Activity [4]: 85%

- IC50 [5]: 47 µM
SMILES: Nc1nc2ccccc2[nH]1

SMILES: Cn1c(C(=O)N/N=C/c2ccc(Oc3c(Cl)cccc3Cl)cc2)cc(Br)c1Br
- IC50 [6]: 0.39 µg/mL
- IC50 [7]: 0.78 µg/mL

SMILES: O=C1C=C(c2ccc(F)cc2)/C(=C/Sc2ccccn2)N1
- IC50 [8]: 32 µM

SMILES: C/C(=C\c1ccccc1)Cn1cc(CCCCCc2c[nH]c(N)n2)nn1
- IC50 [9]: 0.81 µM
- IC50 [10]: 0.98 µM

SMILES: Nc1nc2cc(NC(=O)c3c(Cl)c(Cl)c(Cl)c(Cl)c3C(=O)O)ccc2[nH]1
- EC50 [11]: < 8 µM
- EC50 [12]: 75 µM
- IC50 [13]: 1.5 µM

- IC50 [14]: 17.4 µM
SMILES: Nc1nccc(-c2cccc(NC(=O)c3cc(Br)cc(Br)c3)c2)n1
- fold change (FC) [15]: 32

SMILES: COc1ccc(CC(=O)[N-]c2c([N+]#N)c(C)nn2C)cc1
- Activity [16]: 25%
- Activity [17]: 38%
- Activity [18]: 45.7%

- IC50 [19]: 100 µM
SMILES: Cc1ccc(NC(=O)Cn2c(N)nc(Cc3ccc(C(C)(C)C)cc3)c2-c2ccccc2Br)cc1

- MIC [20]: > 270 µM
- MIC [21]: > 270 µM
- MIC [22]: > 270 µM
- MIC [23]: > 270 µM
- IC50 [25]: 80 µM
SMILES: CC(=O)/C(=N\Nc1ccccc1)C(=O)O
- Activity [24]: 60%

- MIC [26]: > 512 µM
SMILES: O=C(/C=C/c1ccc(O)c(O)c1)OCCc1ccc(Br)cc1
- Activity [27]: 33.69%

Source: ChEMBL document CHEMBL5512599, “Synthetic non-toxic anti-biofilm agents as a strategy in combating bacterial resistance” (Eur J Med Chem, 2023)
